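Five concentrations, 48 hours, 96-well plates. The concentration for 50% growth inhibition is given as GI50. The concentration for full growth arrest is given as TGI.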
Legend:
Test in all cases: NCI anticancer screen, dose series, 48 h
SW-620 colon = tested on: SW-620 colon
SK-OV-3 ovarian = tested on: SK-OV-3 ovarian
OVCAR-3 ovarian = tested on: OVCAR-3 ovarian
HOP-92 NSCLC = tested on: HOP-92 NSCLC
CCRF-CEM leukemia = tested on: CCRF-CEM leukemia
SN12C renal = tested on: SN12C renal
T-47D breast = tested on: T-47D breast
MCF7 breast = tested on: MCF7 breast
NCI/ADR-RES ovarian = tested on: NCI/ADR-RES ovarian
DU-145 prostate = tested on: DU-145 prostate

SMILES	GI50 (SW-620 colon) [µM]	TGI (SW-620 colon) [µM]	GI50 (SK-OV-3 ovarian) [µM]	TGI (SK-OV-3 ovarian) [µM]	GI50 (OVCAR-3 ovarian) [µM]	TGI (OVCAR-3 ovarian) [µM]	TGI (HOP-92 NSCLC) [µM]	TGI (CCRF-CEM leukemia) [µM]	TGI (SN12C renal) [µM]	GI50 (T-47D breast) [µM]	TGI (T-47D breast) [µM]	GI50 (MCF7 breast) [nM]	TGI (MCF7 breast) [µM]	GI50 (HOP-92 NSCLC) [nM]	GI50 (CCRF-CEM leukemia) [nM]	GI50 (NCI/ADR-RES ovarian) [nM]	TGI (NCI/ADR-RES ovarian) [µM]	GI50 (DU-145 prostate) [µM]	TGI (DU-145 prostate) [µM]	GI50 (SN12C renal) [nM]
CC1(C)OC(=O)C=C([O-])O1.CC1(C)OC(=O)C=C([O-])O1.CC[O-].CC[O-].[Ti+4]	> 100	> 100	> 100	> 100	> 100	> 100	–	–	–	–	–	–	–	–	–	–	–	–	–	–
COc1ccc2nc(NC(=O)C(=O)C(C#N)c3ccc(Cl)c(Cl)c3)sc2c1 (centres undefined)	–	> 100	–	> 100	–	> 100	> 100	> 100	> 100	–	–	–	–	–	–	–	–	–	–	–
CN(C)C(=S)/N=c1\ss/c(=N\S(=O)(=O)c2ccccc2)n1N(C)C	–	> 100	–	> 100	–	> 100	–	> 100	> 100	–	–	–	–	–	–	–	–	–	–	–
O=C(O)CCSC(=O)Nc1ccc(N=Nc2ccccc2)cc1	–	> 100	–	> 100	–	> 100	> 100	> 100	> 100	–	–	–	–	–	–	–	–	–	–	–
COc1ccc2c(c1OC)C(=O)c1cnccc1C2=O	–	> 100	–	> 100	–	> 100	> 100	> 100	> 100	–	–	–	–	–	–	–	–	–	–	–
O=C(NS(=O)(=O)c1ccccc1)C(Cc1ccccc1)C(Cc1ccccc1)C(=O)NS(=O)(=O)c1ccccc1 (centres undefined)	–	> 100	–	> 100	–	> 100	> 100	> 100	> 100	–	–	–	–	–	–	–	–	–	–	–
CCCNc1nc2ccccc2c2c1S(=O)(=O)c1ccc(Cl)cc1C2=O	–	–	3.06	41.1	0.944	3.1	0.475	3.98	3.24	1.35	> 50	1090	> 50	89.9	400	1370	> 50	1.57	> 50	648
c1ccc(CNc2nc(Nc3ccccc3)nc3ccccc23)cc1	–	–	3.26	9.51	1.77	3.53	3.05	6	3.7	1.72	4.46	–	–	1450	2130	1990	5	3.06	10.7	1730
CN1CC(=O)N(C)c2nc[nH]c2C1=O	–	> 100	–	> 100	–	> 100	–	> 100	> 100	–	–	–	–	–	–	–	–	–	–	–
O=C(/C=C1/Nc2ccc([N+](=O)[O-])cc2NC1O)c1cccc([N+](=O)[O-])c1 (centres undefined)	–	> 100	–	57.2	–	> 100	> 100	> 100	> 100	–	–	–	–	–	–	–	–	–	–	–
CCC(Oc1ccc(OC)c2ccccc(=O)c12)C(=O)O (centres undefined)	–	> 100	–	> 100	–	> 100	–	> 100	> 100	–	–	–	–	–	–	–	–	–	–	–
Clc1nc(Cl)c2ncn(Cc3ccc(Cn4cnc5c(Cl)nc(Cl)nc54)cc3)c2n1	–	8.91	> 100	> 100	8.68	25.6	–	1.84	32.4	12.4	> 36.7	2220	14.9	–	–	7640	28.8	–	10	12100
COc1cc2c(c(OC3OC(CO)C(O)C(O)C3O)c1)C(=O)CC(c1ccc(O)cc1)O2 (centres undefined)	–	> 100	–	> 100	–	> 100	> 100	–	> 100	–	> 100	–	> 100	–	–	–	> 100	–	> 100	–
O=C1NC(=O)C2C1N(Cc1ccccc1)C(=O)N2Cc1ccccc1 (centres undefined)	–	> 100	–	> 100	–	> 100	> 100	> 100	> 100	–	–	–	–	–	–	–	–	–	–	–
O=C(NO)c1ccc(O)c(O)c1	–	> 100	–	> 100	–	> 100	> 100	> 100	> 100	–	–	–	–	–	–	–	–	–	–	–
O=C1CC(c2ccc(Cl)cc2)Oc2ccccc21 (centres undefined)	–	> 100	–	61	–	–	56.5	37.4	–	–	> 100	–	13.6	–	–	–	50.6	–	> 100	–
COC(=O)C1=C(c2ccc3c(c2)OCO3)OC(c2cc(OC)c(OC)c(OC)c2)C1 (centres undefined)	–	> 100	–	8.09	–	4.26	> 100	> 100	> 100	–	–	–	–	–	–	–	–	–	–	–
N#Cc1cc(S(=O)(=O)Nc2nc3ccccc3s2)c(SCc2ccccc2)cc1Cl	19.8	43.7	–	–	22.3	59.5	43.3	94.6	41.5	22.8	73.7	30700	> 100	24100	28500	30600	> 100	24.4	58.6	19200
Cc1cccc2nc3cccc(C(=O)NCCN(C)C)c3nc12	–	11.2	–	6.74	–	6.45	4.12	> 100	3.15	–	–	–	–	–	–	–	–	–	–	–
O=C(O)C1=C(C(=O)Nc2ccc(NC(=O)C3=C(C(=O)O)C4C=CC3C4)cc2)C2C=CC1C2	–	> 100	–	> 100	–	> 100	> 100	> 100	> 100	–	–	–	–	–	–	–	–	–	–	–
COC(=O)CCC(=O)NC1C2CC3CC(C2)CC1C3 (centres undefined)	–	> 100	–	> 100	–	> 100	> 100	> 100	> 100	–	–	–	–	–	–	–	–	–	–	–
Cc1ccc(-c2nc(N3CCCNCC3)c3oc(-c4ccc(C)cc4)nc3n2)cc1	1.66	3.2	17.8	31.6	1.73	3.1	2.3	–	3.06	1.94	4.17	1850	3.88	1010	–	1960	3.74	1.89	3.3	1610
CN(/N=N/c1nc(OCc2ccccc2)c2[nH]cnc2n1)C(=O)Oc1ccc([N+](=O)[O-])cc1	9.02	26.1	10.4	28.6	9.49	24.4	26.6	–	–	14.2	32.7	12400	> 50	7170	–	–	–	9.02	19.5	–
CC1=CC(=O)N(c2c(C)cccc2Cl)C(C)N1 (centres undefined)	–	> 100	–	> 100	–	> 100	> 100	> 100	> 100	–	–	–	–	–	–	–	–	–	–	–
